Here are results for 21 molecules from patent US9957264B2 (Merck Sharp & Dohme Corp., priority 2013, dated 2018).

Experiment [1] has as its target JAK2 (recombinant purified GST-tagged catalytic domain) (Homo sapiens (Human), UniProt O60674). Description: Jak Biochemical HTRF Assay (JAK2). The following applies: [ATP] 8.5 μM. (TR-FRET usually uses a lanthanide donor and a delayed reading to cut background.)
Experiment [2] has as its target JAK1 (recombinant purified GST-tagged catalytic domain) (Homo sapiens (Human), UniProt P23458). Description: Jak Biochemical HTRF Assay (JAK1). The following applies: [ATP] 31.8 μM. The procedure, abridged:
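GST-tagged human catalytic domains of JAK1 or JAK2 phosphorylated a biotinylated peptide substrate for 120 min at room temperature after ATP addition. Reaction quenched with EDTA stop buffer containing streptavidin-Dylight 650 and Eu-pY20 antibody; HTRF 665/615 nm ratio normalized to untreated controls, IC50 from 4-parameter fit.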

Sequence of JAK2 (recombinant purified GST-tagged catalytic domain) (O60674 849-1124): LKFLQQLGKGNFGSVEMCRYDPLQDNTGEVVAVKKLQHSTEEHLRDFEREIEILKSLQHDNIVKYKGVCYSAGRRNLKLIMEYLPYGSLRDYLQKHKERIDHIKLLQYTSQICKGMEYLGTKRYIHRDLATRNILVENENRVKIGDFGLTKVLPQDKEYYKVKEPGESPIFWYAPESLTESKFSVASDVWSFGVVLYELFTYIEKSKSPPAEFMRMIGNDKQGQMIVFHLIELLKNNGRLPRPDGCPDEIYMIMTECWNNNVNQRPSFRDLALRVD
Sequence of JAK1 (recombinant purified GST-tagged catalytic domain) (P23458 875-1153): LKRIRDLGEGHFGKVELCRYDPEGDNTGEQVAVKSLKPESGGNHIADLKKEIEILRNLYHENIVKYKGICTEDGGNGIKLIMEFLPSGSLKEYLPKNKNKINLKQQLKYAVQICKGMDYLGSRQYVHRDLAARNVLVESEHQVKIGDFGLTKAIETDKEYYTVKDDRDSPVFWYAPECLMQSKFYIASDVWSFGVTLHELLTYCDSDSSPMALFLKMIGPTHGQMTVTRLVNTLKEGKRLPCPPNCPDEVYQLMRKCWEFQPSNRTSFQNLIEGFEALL

Regarding `CC(C)(C)OC(=O)N1CC[C@](CC#N)(n2nc(Nc3ccc(S(C)(=O)=O)cc3)c3c(=O)[nH]ccc32)[C@H](F)C1` [Example 5-17, tert-butyl (3R,4R)-4-(cyanomethyl)-3-fluoro-4-(3-{[4-(methylsulfonyl)phenyl]amino}-4-oxo-4,5-dihydro-1H-pyrazolo [4,3-c]pyridin-1-yl) piperidine-1-carboxylate], the IC50 (usually the concentration at which inhibition is half-maximal) in experiment [1] turned out to be 0.08 nM; in experiment [2], 0.09 nM.

In the case of `CC1(C)C(=O)Nc2cc(Nc3nn([C@@]4(CC#N)CCCC[C@H]4F)c4cc[nH]c(=O)c34)ccc21` [Example 21-2, [(1R,2R)-1-{3-[(3,3-dimethyl-2-oxo-2,3-dihydro-1H-indol-6-yl)amino]-4-oxo-4,5-dihydro-1H-pyrazolo[4,3-c]pyridin-1-yl}-2-fluorocyclohexyl]acetonitrile], the IC50 in experiment [1] and in experiment [2] was 0.04 nM throughout.

Consider `CC(C)(C)OC(=O)N1CC[C@](CC#N)(n2nc(Nc3ccccc3)c3c(=O)[nH]ccc32)[C@H](F)C1` [Example 5-19, tert-butyl (3R,4R)-4-(cyanomethyl)-3-fluoro-4-[4-oxo-3-(phenyl-amino)-4,5-dihydro-1H-pyrazolo[4,3-c]pyridin-1-yl]piperidine-1-carboxylate], for which the half-maximal inhibitory concentration (IC50) in experiment [1] and in experiment [2] was 0.08 nM each time.

Regarding `Cc1cc(Nc2nn([C@]3(CC#N)CCCOC3)c3cc[nH]c(=O)c23)ccc1C(=O)N1CCC(C)(O)CC1` [Example 20-4, (S)-2-(3-(3-((4-(4-hydroxy-4-methylpiperidine-1-carbonyl)-3-methylphenyl)amino)-4-oxo-4,5-dihydro-1H-pyrazolo[4,3-c]pyridin-1-yl)tetrahydro-2H-pyran-3-yl)acetonitrile], the IC50 in experiment [1] was determined as 0.88 nM; in experiment [2], 0.35 nM.

As to `CC(C)(C)OC(=O)N1CC(CC#N)(n2nc(NC3CC3)c3c(=O)[nH]ccc32)C1` [Example 3, tert-butyl 3-(cyanomethyl)-3-[3-(cyclopropylamino)-4-oxo-4,5-dihydro-1H-pyrazolo[4,3-c]pyridin-1-yl]azetidine-1-carboxylate], the IC50 in experiment [1] was 2.51 nM; in experiment [2], 40.8 nM.

For `CN(C)S(=O)(=O)c1ccc(Nc2nn(C3(CC#N)CCN(C(=O)OC(C)(C)C)CC3)c3cc[nH]c(=O)c23)cc1` [Example 5-1, tert-butyl 4-(cyanomethyl)-4-(3-((4-(N,N-dimethylsulfamoyl)phenyl)amino)-4-oxo-4,5-dihydro-1H-pyrazolo[4,3-c]pyridin-1-yl)piperidine-1-carboxylate], the IC50 in experiment [1] came to 0.28 nM; in experiment [2], 0.22 nM.

Turning to `N#CC[C@]1(n2nc(Nc3ccc([C@]4(C(F)(F)F)CCCCN4)cc3)c3c(=O)[nH]ccc32)CCOC[C@H]1F` (single isomer, unassigned) [Example 5-263, 2-((3S,4S or 3R,4R)-3-fluoro-4-(4-oxo-3-((4-((S or R)-2-(trifluoromethyl)piperidin-2-yl)phenyl)amino)-4,5-dihydro-1H-pyrazolo[4,3-c]pyridin-1-yl)tetrahydro-2H-pyran-4-yl)acetonitrile], the IC50 in experiment [1] is 0.77 nM; in experiment [2], 0.48 nM.

Take `CC(C)(C)NS(=O)(=O)c1ccc(Nc2nn([C@]3(CC#N)CCCOC3)c3cc[nH]c(=O)c23)cc1` [Example 5-184, N-tert-butyl-4-({1-[(3S)-3-(cyanomethyl)tetrahydro-2H-pyran-3-yl]-4-oxo-4,5-dihydro-1H-pyrazolo[4,3-c]pyridin-3-yl}amino) benzenesulfonamide]: the IC50 in experiment [1] was 0.6 nM; in experiment [2], 0.2 nM.

As for `COC(C)(c1ccc(Nc2nn([C@]3(CC#N)CC[C@@H](C(=O)OC(C)(C)C)OC3)c3cc[nH]c(=O)c23)cc1)C(F)(F)F` (single isomer, unassigned) [Example 5-172, (2S,5S)-tert-butyl 5-(cyanomethyl)-5-(4-oxo-3-((4-((S or R)-1,1,1-trifluoro-2-methoxypropan-2-yl)phenyl)amino)-4,5-dihydro-1H-pyrazolo[4,3-c]pyridin-1-yl)tetrahydro-2H-pyran-2-carboxylate], the IC50 came out at 1.14 nM in experiment [1] and 0.75 nM in experiment [2].

Consider `Cc1cc(Nc2nn([C@]3(CC#N)CC[C@@H](C(=O)OC(C)(C)C)OC3)c3cc[nH]c(=O)c23)ccc1C(=O)N1CCOC(C)C1` (single isomer, unassigned) [Example 20-10, (2S,5S)-tert-butyl 5-(cyanomethyl)-5-(3-((3-methyl-4-((S or R)-2-methylmorpholine-4-carbonyl)phenyl)amino)-4-oxo-4,5-dihydro-1H-pyrazolo[4,3-c]pyridin-1-yl)tetrahydro-2H-pyran-2-carboxylate], for which the IC50 stood at 0.31 nM in experiment [1] and 0.21 nM in experiment [2].

In the case of `CC(C)(C)OC(=O)N1CCC(CC#N)(n2nc(Nc3ccc(S(=O)(=O)NC4CCCCC4)cc3)c3c(=O)[nH]ccc32)CC1` [Example 5-292, tert-butyl 4-(cyanomethyl)-4-(3-((4-(N-cyclohexylsulfamoyl)phenyl)amino)-4-oxo-4,5-dihydro-1H-pyrazolo[4,3-c]pyridin-1-yl)piperidine-1-carboxylate], the IC50 in experiment [1] was 1.92 nM; in experiment [2], 1.2 nM.

As to `CC(C)(C)NC(c1ccc(Nc2nn([C@]3(CC#N)CC[C@@H](C(=O)OC(C)(C)C)OC3)c3cc[nH]c(=O)c23)cc1)C(F)(F)F` (single isomer, unassigned) [Example 5-194, (2S,5S)-tert-butyl 5-(3-((4-((R or S)-1-(tert-butylamino)-2,2,2-trifluoroethyl)phenyl)amino)-4-oxo-4,5-dihydro-1H-pyrazolo [4,3-c]pyridin-1-yl)-5-(cyanomethyl)tetrahydro-2H-pyran-2-carboxylate], the IC50 is 0.82 nM in experiment [1] and 0.52 nM in experiment [2].

On to `CNc1nn(C2(CC#N)CCN(C(=O)OC(C)(C)C)CC2)c2cc[nH]c(=O)c12` [Example 2-5, tert-butyl 4-(cyanomethyl)-4-[3-(methylamino)-4-oxo-4,5-dihydro-1H-pyrazolo [4,3-c]pyridin-1-yl] piperidine-1-carboxylate], for which the IC50 in experiment [1] amounted to 490 nM; in experiment [2], 20.3 nM.

As to `CC(C)(C)OC(=O)[C@@H]1CC[C@@](CC#N)(n2nc(Nc3ccc(S(C)(=O)=O)cc3)c3c(=O)[nH]ccc32)CO1` [Example 5-39, (2S,5S)-tert-butyl 5-(cyanomethyl)-5-(3-((4-(methylsulfonyl)phenyl)amino)-4-oxo-4,5-dihydro-1H-pyrazolo[4,3-c]pyridin-1-yl)tetrahydro-2H-pyran-2-carboxylate], the IC50 was 0.43 nM in experiment [1] and 0.06 nM in experiment [2].

For `CO[C@@H](c1ccc(Nc2nn(C3(CC#N)CCN(C(=O)OC(C)(C)C)CC3)c3cc[nH]c(=O)c23)cc1)C(F)(F)F` (single isomer, unassigned) [Example 21-10, tert-butyl 4-(cyanomethyl)-4-[4-oxo-3-({4-[(1S or 1R)-2,2,2-trifluoro-1-methoxyethyl]phenyl}amino)-4,5-dihydro-1H-pyrazolo[4,3-c]pyridin-1-yl]piperidine-1-carboxylate], the IC50 in experiment [1] stood at 1.95 nM; in experiment [2] it was 0.97 nM.

As for `Cc1ccc2cc(Nc3nn([C@]4(CC#N)CC[C@@H](C(=O)OC(C)(C)C)OC4)c4cc[nH]c(=O)c34)ccc2n1` [Example 5-217, (2S,5S)-tert-butyl 5-(cyanomethyl)-5-(3-((2-methylquinolin-6-yl)amino)-4-oxo-4,5-dihydro-1H-pyrazolo[4,3-c]pyridin-1-yl)tetrahydro-2H-pyran-2-carboxylate], the values for the IC50 in experiment [1] and in experiment [2] were 0.77 nM and 0.07 nM, respectively.

With `N#CC[C@]1(n2nc(Nc3ccc(C(F)(F)F)cc3)c3c(=O)[nH]ccc32)CC[C@@H](Nc2ccccc2)CC1` [Example 18-3, Cis 2-(1-(4-oxo-3-((4-(trifluoromethyl)phenyl)amino)-4,5-dihydro-1H-pyrazolo[4,3-c]pyridin-1-yl)-4-(phenylamino)cyclohexyl)acetonitrile], the results for the IC50 in experiment [1] and in experiment [2] were 1290 nM and 41.1 nM, respectively.

Turning to `COC1CN([C@H]2CC[C@@](CC#N)(n3nc(Nc4ccc(Cl)cc4)c4c(=O)[nH]ccc43)CC2)C1` [Example 18-9, Cis 2-(1-(3-((4-chlorophenyl)amino)-4-oxo-4,5-dihydro-1H-pyrazolo[4,3-c]pyridin-1-yl)-4-(3-methoxyazetidin-1-yl)cyclohexyl)acetonitrile], the IC50 in experiment [1] is 102 nM; in experiment [2] it was 1.14 nM.

Consider `CC1(C)CCCC1S(=O)(=O)c1ccc(Nc2nn([C@]3(CC#N)CCCOC3)c3cc[nH]c(=O)c23)cc1` (stereo partly drawn) [Example 5-202, {(3S)-3-[3-({4-[(2,2-dimethylcyclopentyl)sulfonyl]phenyl}amino)-4-oxo-4,5-dihydro-1H-pyrazolo[4,3-c]pyridin-1-yl]tetrahydro-2H-pyran-3-yl}acetonitrile], for which the IC50 in experiment [1] was 1.2 nM; in experiment [2] it was 0.39 nM.

As for `CC(C)(C)N[C@@H](c1ccc(Nc2nn([C@@]3(CC#N)CCOC[C@H]3F)c3cc[nH]c(=O)c23)cc1)C(F)(F)F` (single isomer, unassigned) [Example 5-268, 2-((3S,4S or 3R,4R)-4-(3-((4-((S or R)-1-(tert-butylamino)-2,2,2-trifluoroethyl)phenyl)amino)-4-oxo-4,5-dihydro-1H-pyrazolo[4,3-c]pyridin-1-yl)-3-fluorotetrahydro-2H-pyran-4-yl)acetonitrile], the figures for the half-inhibitory concentration (IC50) in experiment [1] and in experiment [2] were 4.78 nM and 2.63 nM, respectively.

For `Cc1cc(Nc2nn([C@]3(CC#N)CCOC[C@@H]3F)c3cc[nH]c(=O)c23)ccc1C(=O)N1CCSCC1` (single isomer, unassigned) [Example 5-262, 2-((3R,4R or 3S,4S)-3-fluoro-4-(3-((3-methyl-4-(thiomorpholine-4-carbonyl)phenyl)amino)-4-oxo-4,5-dihydro-1H-pyrazolo[4,3-c]pyridin-1-yl)tetrahydro-2H-pyran-4-yl)acetonitrile], the IC50 was 0.08 nM in experiment [1] and 0.09 nM in experiment [2].
